Source: paper PMC8836147, “Design, Synthesis and Antifungal/Nematicidal Activity of Novel 1,2,4-Oxadiazole Derivatives Containing Amide Fragments” (International Journal of Molecular Sciences, 2022)
Converted amounts (≈) assume the structure as drawn.

Experiments:
[1] = MTT cytotoxicity assay; format: cell-based; conditions: human, L-02 normal liver cells, L-02 cells
Procedure: The human liver L-02 cells were obtained from the biology laboratory in Key Laboratory of Chemistry for Natural Products of Guizhou Province and Chinese Academy of Sciences (Guiyang, China). The cells were grown in Dulbecco’s Modified Eagle’s Medium (supplemented with 10% (v/v) FBS, 100 U/mL penicillin, and 100 μg/mL streptomycin) at 37 °C in a CO2 incubator (5% CO2 and 95% air, 95% humidity). The effect of some compounds on cell viability was determined with the MTT assay according to the previously published literature. A total of 5000 cells were inoculated in a 96-well plate and three wells of each concentration of test compound were used. A total of 24 h after inoculation, the cells had grown to ~60% confluency, and different concentrations of compounds were added, and then the cells were cultured for 48 h. DMSO was used as the control. A total of 20 μL of MTT solution was added to each well and incubated at 37 °C for 4 h. Formazan crystals were dissolved in 150 μL of DMSO and quantified using a microplate reader (Thermo Scientific, Vario Skan Flash, Shanghai Bio-Gene Technology Co., LTD, Shanghai, China) at 490 nm. The cytotoxicity was calculated according to following formula:Cytotoxicity (%) = [(OCK − OT)/OCK] × 100%(2) where OCK represents the optical density (OD) value of the blank control group, and OT represents the OD value of experimental group.

[2] = test system: B. cinerea; test: In vitro mycelium growth inhibition test; format: cell-based; conditions: Botrytis cinerea; 50 μg/mL; mycelial growth; mean ± SD of three replicates; read-out: Inhibition Rate (%) B. cinerea
Procedure: (§1) B. cinerea and S. scleotiorum were kindly provided by the Department of Pesticides, College of Plant Protection, Nanjing Agricultural University (Nanjing, China). All compounds were evaluated for mycelium growth inhibition tests against the two plant pathogenic fungi mentioned in previous reports. These two fungi were inoculated on potato dextrose agar (PDA) plates and were grown in biochemical incubators at 25 ± 1 °C for 2–4 days. The new mycelium was used to determine the antifungal activity. The target compounds were dissolved in 100 µL DMF, and they were then added into the PDA media to make the concentration 50 µg/mL. Mycelia dishes of about 5 mm in diameter were cut from the culture medium. Mycelium were picked up with a sterile inoculation needle, and the sample was inoculated in the middle of a PDA plate in a sterile environment. Afterwards, a preliminary screening of fungal activity was performed. […] Each test was carried out three times. The radial growth of the fungal colonies was gauged and recorded when the diameters of the blank control mycelia reached 5.0–5.5 cm. […] The final data were analyzed using SPSS v.25.0 (IBM, New York, NY, USA). The following formula was used to calculate the fungi inhibition rate. Inhibition rate (%) = [(Mycelium diameter of negative control − Mycelium diameter of treatment)/(Mycelium diameter of negative control − 0.5)] × 100%(1)

[3] = test system: S. sclerotiorum; test: In vitro mycelium growth inhibition test; format: cell-based; conditions: Sclerotinia sclerotiorum, mycelial growth, mean ± SD of three replicates; for inhibition at 50 µg/mL: 50 μg/mL, read-out: Inhibition Rate (%) S. sclerotiorum; for EC50: read-out: EC50 against S. sclerotiorum
Procedure: as §1

[4] = test system: B. xylophilus; test: microbe, parasite or virus in culture; conditions: Bursaphelenchus xylophilus, 48 h, read-out: Corrected Mortality Rate ± SD (%) B. xylophilus
Description: (§2) M. incognita (parasitic on tomato plants), A. besseyi (potato dextrose agar–Botrytis cinerea breeding), B. xylophilus (potato dextrose agar–Botrytis cinerea breeding), and C. elegans (nematode growth medium–inactivated Escherichia coli OP50 cultivation) were provided by the Fine Chemical Research and Development Center of Guizhou University (Guizhou, China). The methodology used for the nematocidal bioassays of these target compounds was modified in the light of the conventional methods reported in the previously published literature. The nematicidal activity of the target compounds against four nematodes was determined using 48-well biochemical culture dishes. All of the compounds were dissolved with 100 μL DMF and were diluted with 1% Tween-80 to obtain 200 and 50 μg/mL concentrations for the bioassays. Fosthiazate and tioxazafen were used as positive controls at the same concentrations, and a negative control group was prepared without compounds using the same methodology. An amount of 10 µL of nematode suspension (about 50 nematodes) and 300 µL of the trial solution were added to corresponding hole, and each treatment was set to three repetitions. All of the 48-well plates were placed in a biochemical incubator at 27 °C for dark light culture. […] Corrected mortality (%) = [(mortality of treatment % − mortality of negative control %)/(1 − mortality of negative control %)] × 100%(3)

[5] = test system: M. incognita; test: microbe, parasite or virus in culture; conditions: Meloidogyne incognita, 48 h, read-out: Corrected Mortality Rate ± SD (%) M. incognita
Description: as §2

[6] = test system: A. besseyi; test: microbe, parasite or virus in culture; conditions: Aphelenchoides besseyi, 48 h, read-out: Corrected Mortality Rate ± SD (%) A. besseyi
Description: as §2

[7] = test system: C. elegans; test: microbe, parasite or virus in culture; conditions: 48 h; for mortality at 50 µg/mL / mortality at 200 µg/mL: Caenorhabditis elegans, read-out: Corrected Mortality Rate ± SD (%) C. elegans
Description: as §2

[8] = test system: S. sclerotiorum; test: In vivo curative activity assay on infected cole leaves; parameters: species or system Sclerotinia sclerotiorum; conditions: sprayed 24 h after inoculation, 72 h
Description: (§3) Susceptible cole leaves collected from Guizhou Academy of Agricultural Sciences were used to determine the in vivo efficacy of F15 according to previous literature. […] Vaccination time was used to distinguish between the protective activity assays and curative activity assays. A 5 mm mycelia dish was placed at the widest center of the cole leaf, and it was ensured that it was not placed on the main vein of the leaf. For the protective activity assay, test compounds with different concentrations were sprayed on the leaves until the liquid reached the surface. Inoculation was conducted after 24 h. For the curative activity assay, which took place 24 h after inoculation, compounds of different concentrations were sprayed on the surfaces of the leaves until the liquid flowed. Fluopyram and sterile distilled water were used as a positive control and negative control, respectively. All of the inoculated leaves were placed inside of a 25 °C light incubator with 85% relative humidity and a 16 h photoperiod for disease development. The average diameters of the lesions were measured using the cross method after 72 h. The disease control efficacy was obtained through the following formula:Control efficacy (%) = (1 − DT/DCK) × 100%(4) where DCK represents the lesion diameter of the sterile distilled water control, and DT represents the lesion diameters of the treatment samples. Each test was carried out five times, and the experiment was performed three times.

[9] = test system: S. sclerotiorum; test: In vivo protective activity assay on infected cole leaves; parameters: species or system Sclerotinia sclerotiorum; conditions: sprayed 24 h before inoculation, 72 h
Description: as §3

SMILES | cytotoxicity at 48 h, 50 μg/mL [1] | cytotoxicity at 48 h, 100 μg/mL [1] | cytotoxicity at 48 h, 200 μg/mL [1] | inhibition at 50 µg/mL [2] | inhibition at 50 µg/mL [3] | EC50 [3] | mortality at 50 µg/mL [4] | mortality at 200 µg/mL [4] | mortality at 50 µg/mL [5] | mortality at 200 µg/mL [5] | mortality at 50 µg/mL [6] | mortality at 200 µg/mL [6] | mortality at 50 µg/mL [7] | mortality at 200 µg/mL [7] | also measured
O=C(NCc1ccc(F)cc1F)c1nc(-c2ccccc2)no1 [Compound F3, N -(2,4-difluorobenzyl)-3-phenyl-1,2,4-oxadiazole-5-carboxamide] | 7.5 ± 3.8% | 17 ± 1.4% | 50.8 ± 3.9% | 56.8 ± 0.1% | 84.8 ± 0.6% | 5.4 ± 0.3 µg/mL (≈ 17.1 µM) | 0% | 26.1 ± 1.2% | 13.9 ± 2.1% | 54.9 ± 3.3% | 0% | 20.1 ± 1.3% | 100% | 100% | Corrected Mortality Rate ± SD (%) C. elegans ([7]; 50 µg/mL): 100.0%; Corrected Mortality Rate ± SD (%) C. elegans ([7]; 200 µg/mL): 100.0%
O=C(NCCc1ncc(C(F)(F)F)cc1Cl)c1ccccc1C(F)(F)F [Fluopyram, fluopyram, reference compound] | 3.8 ± 2.5% | 40.1 ± 1.2% | 55.1 ± 0.4% | 87.3 ± 0.6% | 93.7 ± 1.7% | 1.2 ± 1.6 µg/mL (≈ 3.02 µM) | 100% | 100% | 100% | 100% | 100% | 100% | 100% | 100% | Curative Effect Control Efficacy (%) ([8]; 25 μg/mL): 65.0%; Curative Effect Lesion Length ([8]; 25 μg/mL): 7.7 ± 0.6 mm; Curative Effect Control Efficacy (%) ([8]; 50 μg/mL): 71.4%; Curative Effect Lesion Length ([8]; 50 μg/mL): 6.3 ± 0.2 mm; Curative Effect Control Efficacy (%) ([8]; 100 μg/mL): 74.1%; Curative Effect Lesion Length ([8]; 100 μg/mL): 5.7 ± 0.6 mm; Protective Effect Control Efficacy (%) ([9]; 25 μg/mL): 66.8%; Protective Effect Lesion Length ([9]; 25 μg/mL): 7.9 ± 0.1 mm; Protective Effect Control Efficacy (%) ([9]; 50 μg/mL): 69.3%; Protective Effect Lesion Length ([9]; 50 μg/mL): 7.3 ± 0.2 mm; Protective Effect Control Efficacy (%) ([9]; 100 μg/mL): 75.6%; Protective Effect Lesion Length ([9]; 100 μg/mL): 5.8± 0.1 mm
O=C(NCCc1ccccn1)c1nc(-c2ccc(Cl)cc2)no1 [Compound F9, 3-(4-chlorophenyl)-N-(2-(pyridin-2-yl)ethyl)-1,2,4-oxadiazole-5-carboxamide] | -2.5 ± 0.2% | 7.1 ± 6.5% | 31.5 ± 8.7% | 26.7 ± 0.5% | 61.1 ± 0.7% | 18.7 ± 0.4 µg/mL (≈ 56.9 µM) | 0% | 14.5 ± 2.5% | 9.8 ± 2.5% | 56.3 ± 2.4% | 0% | 12.8 ± 2.3% | 62.1 ± 2.2% | 87.6 ± 1.1% | 
O=C(NCCc1ncc(C(F)(F)F)cc1Cl)c1nc(-c2cccs2)no1 [Compound F14] | 18.8 ± 2.5% | 21.4 ± 5% | 39.1 ± 8.4% | 36.4 ± 0.2% | 65.2 ± 0.2% | 15.3 ± 1.3 µg/mL (≈ 38 µM) | 0% | 6.9 ± 1.8% | 0% | 12.3 ± 2.3% | 0% | 27 ± 0.8% | 70 ± 0.6% | 100% | 
O=C(Nc1ccc(Cl)cc1Cl)c1nc(-c2ccccc2)no1 [Compound F4, N-(2,4-dichlorophenyl)-3-phenyl-1,2,4-oxadiazole-5-carboxamide] |  |  |  | 20.9 ± 0.1% | 31.2 ± 0.7% |  | 0% | 25.3 ± 1.7% | 5.9 ± 1.3% | 23.2 ± 1.4% | 0% | 11.7 ± 1.4% | 71.4 ± 2.2% | 98.4 ± 2.3% | 
O=C(NCCc1ccccn1)c1nc(-c2ccccc2)no1 [Compound F1, 3-Phenyl-N-(2-(pyridin-2-yl)ethyl)-1,2,4-oxadiazole-5-carboxamide] | 4.7 ± 4.9% | 10.9 ± 5.9% | 15.4 ± 4.4% | 24.2 ± 0.2% | 73.2 ± 0.1% | 20.8 ± 0.8 µg/mL (≈ 70.7 µM) | 0% | 6.1 ± 1.1% | 6.9 ± 2.1% | 43.5 ± 2.3% | 0% | 6.9 ± 1.2% | 51.3 ± 2.2% | 88.7 ± 1.3% | 
Cc1nc(C(F)(F)F)c(C(=O)Nc2c(Br)cc(OC(F)(F)F)cc2Br)s1 [Thifluzamide, thifluzamide, reference compound] | 33.3 ± 1.8% | 33.7 ± 0.4% | 33.9 ± 1.5% | 80.3 ± 0.2% | 86.7 ± 0.3% | 4.3 ± 1.7 µg/mL (≈ 8.14 µM) |  |  |  |  |  |  |  |  | 
O=C(Nc1ccc(Cl)cc1Cl)c1nc(-c2ccc(Cl)cc2)no1 [Compound F12, 3-(4-chlorophenyl)-N-(2,4-dichlorophenyl)-1,2,4-oxadiazole-5-carboxamide] |  |  |  | 29.1 ± 1.4% | 24.8 ± 1.4% |  | 0% | 20.8 ± 2.5% | 13.8 ± 2.3% | 54.8 ± 2.5% | 0% | 18.8 ± 1.1% | 8.6 ± 1.6% | 47.6 ± 1.2% | 
O=C(NCc1ccc(F)cc1F)c1nc(-c2ccc(Cl)cc2)no1 [Compound F11, 3-(4-chlorophenyl)-N-(2,4-difluorobenzyl)-1,2,4-oxadiazole-5-carboxamide] |  |  |  | 44.2 ± 1.2% | 44.9 ± 0.9% |  | 0% | 23.2 ± 2.1% | 24.8 ± 2.2% | 93.2 ± 2.1% | 0% | 19.8 ± 2.1% | 10.6 ± 1.3% | 73.6 ± 1.7% | 
